# Test results: patent publication US8513275B2 (Salix Pharmaceuticals, Ltd, priority 2010, dated 2013)
# “Also recorded” adds a separate entry of the source. Where two headings read alike, the source gives them in different places. Marks after values point to notes of the source that are not given here.
# How the values were obtained:
# [1] = Particle size distributions for Rifaximin forms; format: physicochemical; details: for d10: 10% of the total volume of particles less than the indicated size; for d50: 50% of the total volume of particles less than the indicated size; for d90: 90% of the total volume of particles less than the indicated size
# [2] = 1000 psi, 1 min.
# [3] = water slurry, 5 minutes, 3 hours and 7 hours
# Description: In order to be able to measure the aqueous solubility (equilibrium or kinetic) of a cocrystal, it should remain intact upon exposure to aqueous conditions for some duration. If it dissociates or changes forms quickly upon contact with water, intrinsic dissolution may be introduced as an alternative to solubility, in which dissolution of a pellet of the cocrystal is measured; however, the cocrystal must not change form upon compression.
# [4] = VS w/ACN
# Description: Subsequent characterization of cocrystal 2 was conducted quickly after isolating vapor stressed samples.
# The 20-mL vial was capped and left at ambient conditions for vapor stress.
# [5] = Relative humidity stressing at ambient temperature, XRPD of stressed solid; format: physicochemical
# [6] = Properties of the Rifaximin:piperazine cocrystals (summary, Table 12); details: summary column of Table 12
# [7] = Dynamic vapor sorption (moisture sorption, moisture balance) with post-sorption XRPD; format: physicochemical; details: for weight loss from 95 to 5% RH: desorption 95-5% RH; for post-moisture sorption (post-MB / post-DVS) XRPD result: solid after DVS cycle; for weight gain from 5 to 95% RH: sorption 5-95% RH; for overall weight loss in moisture sorption: whole sorption/desorption cycle
# Description: (§1) Automated vapor sorption (VS) data were collected on a VTI SGA-100 Vapor Sorption Analyzer. NaCl and PVP were used as calibration standards. Samples were not dried prior to analysis. […] The equilibrium criterion used for analysis was less than 0.0100% weight change in 5 minutes with a maximum equilibration time of 3 hours. Data were not corrected for the initial moisture content of the samples.
# as §1, with “Automated dynamic” for “Automated”, “(DVS)” for “(VS)”, “hours.” for “hours. Data were not corrected for the initial moisture content of the samples.”
# [8] = Ambient storage / exposure to ambient conditions, XRPD; format: physicochemical; details: for XRPD result after ambient storage: 8 days of ambient storage, large-scale sample
# Text: Form θ drying and physical stability evaluation was not formally included in the protocol. […] The initial sample was generated from nitrogen drying of Form ζ. The initial XRPD pattern was acquired utilizing parameters not consistent with the other data acquisition.
# [9] = listed as As-Prepared Rifaximin Form κ
# [10] = listed as post-drying rifaximin Form κ
smiles,measurement,setting,value
"CO[C@H]1/C=C/O[C@@]2(C)Oc3c(C)c(O)c4c(O)c(c5c(nc6cc(C)ccn65)c4c3C2=O)NC(=O)/C(C)=C\C=C\[C@H](C)[C@H](O)[C@@H](C)[C@@H](O)[C@@H](C)[C@H](OC(C)=O)[C@@H]1C [η, rifaximin]",d10,[1],3.857 μm
same,d50,[1],79.844 μm
same,d90,[1],290.353 μm
"C1CNCCN1.COC1C=COC2(C)Oc3c(C)c(O)c4c(O)c(c5c(nc6cc(C)ccn65)c4c3C2=O)NC(=O)C(C)=CC=CC(C)C(O)C(C)C(O)C(C)C(OC(C)=O)C1C.COC1C=COC2(C)Oc3c(C)c(O)c4c(O)c(c5c(nc6cc(C)ccn65)c4c3C2=O)NC(=O)C(C)=CC=CC(C)C(O)C(C)C(O)C(C)C(OC(C)=O)C1C (stereo not drawn) [cocrystal 1, rifaximin:piperazine cocrystal 1]",XRPD result after compression,[2],"additional peaks at approximately 5 and 17°2θ were observed by XRPD, and the material was low crystalline"
same,XRPD result after slurrying in water,[3]; listed as Rifaximin:Piperazine Cocrystal 1,"API, Form β-1"
same,XRPD result after slurrying in water,[3]; listed as Rifaximin:piperazine cocrystal 1,conversion to Rifaximin Form β-1
same,XRPD result after vapor stress with ACN,[4]; 7 days,conversion to cocrystal 2
same,XRPD result after vapor stress with ACN,"[4]; 7 days, listed as Cocrystal 1",Cocrystal 2 resulted by XRPD
same,XRPD result after vapor stress with ACN,"[4]; 7 days, listed as Rifaximin:Piperazine Cocrystal 1",cocrystal 2^c
same,XRPD result after vapor stress with ACN,"[4]; 24 days, sample stood capped at ambient approx. 5-6 hours before XRPD",gave cocrystal 1 by XRPD
same,XRPD result after vapor stress with ACN,"[4]; 24 days, sample stood capped at ambient approx. 5-6 hours before XRPD, listed as Rifaximin:Piperazine Cocrystal 1",cocrystal 1^b
same,XRPD result after RH stress,"[5]; ~75% RH, 1 week","broad peaks, similar to cocrystal 1+ peak at ˜5°2θ"
same,XRPD result after RH stress,"[5]; ~75% RH, 1 week, listed as Cocrystal 1","broad peaks, similar to cocrystal 1 with an additional peak at approximately 5°2θ"
same,XRPD result after RH stress,"[5]; ~75% RH, 2 weeks","broad peaks, similar to cocrystal 1+ peak at ˜5°2θ"
same,XRPD result after RH stress,"[5]; ~75% RH, 2 weeks, listed as Cocrystal 1","broad peaks, similar to cocrystal 1 with an additional peak at approximately 5°2θ"
same,XRPD result after RH stress,"[5]; ~75% RH, 3 days","broad peaks, similar to cocrystal 1+ peak at ˜5°2θ"
same,XRPD result after RH stress,"[5]; ~75% RH, 3 days, listed as Cocrystal 1","broad peaks, similar to cocrystal 1 with an additional peak at approximately 5°2θ"
same,XRPD result after RH stress,"[5]; ~97% RH, 1 week, listed as Cocrystal 1",Conversion to Rifaximin Form β-1
same,XRPD result after RH stress,"[5]; ~97% RH, 1 week, listed as Rifaximin:Piperazine Cocrystal 1","API, Form β-1"
same,XRPD result after RH stress,"[5]; ~97% RH, 3 days, listed as Cocrystal 1",conversion to Rifaximin Form β-1
same,XRPD result after RH stress,"[5]; ~97% RH, 3 days, listed as Rifaximin:Piperazine Cocrystal 1","API, Form β-1"
same,"Properties (hygroscopicity, stability)",[6],likely falls apart upon heating; also recorded: hygroscopic
same,hygroscopicity by DVS,[7],quite hygroscopic
same,weight loss from 95 to 5% RH,[7]; listed as sample 4,11.47% weight loss from 95-5% RH
same,weight loss upon equilibration at 5% RH,[7]; initial equilibration at 5% RH,3.54% weight loss at 5% RH
same,post-moisture sorption (post-MB / post-DVS) XRPD result,[7],"broad peaks, similar to cocrystal 1 with additional peaks at approximately 5 and 17°2θ; also recorded: broad peaks, similar to cocrystal 1 plus peaks at approximately 5 and 17°2θ"
same,post-moisture sorption (post-MB / post-DVS) XRPD result,[7]; listed as Cocrystal 1,conversion to a material similar to cocrystal 1 plus two additional peaks
same,weight gain from 5 to 95% RH,[7]; listed as sample 4,10.78% weight gain from 5-95% RH
"CO[C@H]1/C=C/O[C@@]2(C)Oc3c(C)c(O)c4c(O)c(c5c(nc6cc(C)ccn65)c4c3C2=O)NC(=O)/C(C)=C\C=C\[C@H](C)[C@H](O)[C@@H](C)[C@@H](O)[C@@H](C)[C@H](OC(C)=O)[C@@H]1C [As received, rifaximin]",d10,[1],0.399 μm
same,d50,[1],8.629 μm
same,d90,[1],33.891 μm
"CO[C@H]1/C=C/O[C@@]2(C)Oc3c(C)c(O)c4c(O)c(c5c(nc6cc(C)ccn65)c4c3C2=O)NC(=O)/C(C)=C\C=C\[C@H](C)[C@H](O)[C@@H](C)[C@@H](O)[C@@H](C)[C@H](OC(C)=O)[C@@H]1C [Form κ, rifaximin]",d10,[1],15.551 μm
same,d50,[1],90.684 μm
same,d90,[1],225.815 μm
same,weight loss from 95 to 5% RH,[7]; [9],12% wt loss from 95 to 5% RH.
same,weight loss from 95 to 5% RH,[7]; listed as rifaximin Form κ,12%
same,weight loss upon equilibration at 5% RH,"[7]; initial equilibration at 5% RH, listed as As-Prepared Rifaximin Form κ",7.5% wt loss upon equilibration at 5% RH
same,weight loss upon equilibration at 5% RH,"[7]; initial equilibration at 5% RH, listed as rifaximin Form κ",7.5%
same,post-moisture sorption (post-MB / post-DVS) XRPD result,[7]; [9],Disordered
same,post-moisture sorption (post-MB / post-DVS) XRPD result,[7]; listed as rifaximin Form κ,disordered
same,weight gain from 5 to 95% RH,[7]; [9],4.6% wt gain from 5 to 95% RH
same,weight gain from 5 to 95% RH,[7]; listed as rifaximin Form κ,4.6%
same,overall weight loss in moisture sorption,[7]; [9],Overall wt loss = 14. 9% (equivalent to ~2 moles of IPA)
same,overall weight loss in moisture sorption,[7]; listed as rifaximin Form κ,approximately 14.9%
"CO[C@H]1/C=C/O[C@@]2(C)Oc3c(C)c(O)c4c(O)c(c5c(nc6cc(C)ccn65)c4c3C2=O)NC(=O)/C(C)=C\C=C\[C@H](C)[C@H](O)[C@@H](C)[C@@H](O)[C@@H](C)[C@H](OC(C)=O)[C@@H]1C [Post-Drying Rifaximin Form κ, rifaximin]",XRPD result after humidity stress,"[5]; 84% RH, RT, 19 days",Disordered κ
same,weight loss from 95 to 5% RH,[7],11.0% wt lost from 95%-5% RH
same,weight loss from 95 to 5% RH,[7]; [10],11%
same,weight loss upon equilibration at 5% RH,[7]; initial equilibration at 5% RH,0.1% wt loss upon equilibration at 5% RH
same,weight loss upon equilibration at 5% RH,"[7]; initial equilibration at 5% RH, listed as post-drying rifaximin Form κ",0.1%
same,post-moisture sorption (post-MB / post-DVS) XRPD result,[7],Disordered κ
same,post-moisture sorption (post-MB / post-DVS) XRPD result,[7]; [10],disordered
same,weight gain from 5 to 95% RH,[7],7.7% wt gain from 5%-95% RH
same,weight gain from 5 to 95% RH,[7]; [10],7.7%
same,overall weight loss in moisture sorption,[7],approximately 3.3%
"CO[C@H]1/C=C/O[C@@]2(C)Oc3c(C)c(O)c4c(O)c(c5c(nc6cc(C)ccn65)c4c3C2=O)NC(=O)/C(C)=C\C=C\[C@H](C)[C@H](O)[C@@H](C)[C@@H](O)[C@@H](C)[C@H](OC(C)=O)[C@@H]1C [Form θ, rifaximin]",XRPD result after ambient storage,[8],remained Form θ
same,XRPD result after ambient storage,[8]; listed as Rifaximin Form θ,θ (after 8 days of ambient storage)
same,XRPD result on reanalysis,"[8]; reanalyzed within hours, nitrogen-dried sample",conversion to Form ι
same,weight loss from 95 to 5% RH,[7]; listed as Rifaximin Form θ,5.826% wt lost from 95%-5% RH
same,weight loss from 95 to 5% RH,[7]; listed as rifaximin Form θ,5.8%
same,weight loss upon equilibration at 5% RH,"[7]; initial equilibration at 5% RH, listed as rifaximin Form θ",7.3%
same,wt change upon equilibration at 5% RH,"[7]; signed change, initial equilibration at 5% RH",−7.314% wt change upon equilibration at 5% RH
same,post-moisture sorption (post-MB / post-DVS) XRPD result,[7]; listed as Rifaximin Form θ,ι
same,post-moisture sorption (post-MB / post-DVS) XRPD result,[7]; listed as rifaximin Form θ,Form ι; also recorded: Form t
same,weight gain from 5 to 95% RH,[7]; listed as Rifaximin Form θ,5.733% wt gain from 5%-95% RH
same,weight gain from 5 to 95% RH,[7]; listed as rifaximin Form θ,5.7%
same,overall weight loss in moisture sorption,[7]; listed as rifaximin Form θ,approximately 7.4%
"C1CNCCN1.CC#N.COC1C=COC2(C)Oc3c(C)c(O)c4c(O)c(c5c(nc6cc(C)ccn65)c4c3C2=O)NC(=O)C(C)=CC=CC(C)C(O)C(C)C(O)C(C)C(OC(C)=O)C1C.COC1C=COC2(C)Oc3c(C)c(O)c4c(O)c(c5c(nc6cc(C)ccn65)c4c3C2=O)NC(=O)C(C)=CC=CC(C)C(O)C(C)C(O)C(C)C(OC(C)=O)C1C (stereo not drawn) [cocrystal 2, rifaximin:piperazine cocrystal 2]",behaviour upon exposure to ambient conditions,[8],rapidly desolvates
same,form conversion after exposure to ambient conditions,[8]; longer exposure (ex. 12 days),"conversion to material similar to cocrystal 1, but exhibiting broad peaks with additional peaks at approximately 5 and 17°2θ"
same,form conversion after exposure to ambient conditions,[8]; relatively short exposure (ex. 5-6 hours),convert to cocrystal 1
